Test results: patent US20250255876A1, “COMPOSITIONS AND METHODS FOR CANCER TREATMENT” (ARIEL SCIENTIFIC INNOVATIONS LTD., priority 2021, published 2025)

Key:
Format in all cases: cell-based
U2OS cells = assay: Colony survival assay, U2OS cells; settings: varying cisplatin, 48 hours
Procedure: (§1) H1975 cells were plated in 24-well plates at 50,000 cells/well (for 50 µM inhibitor treatment) or 20,000 cells/well (for […] inhibitor treatment). U2OS and A549 cells were plated in 24-well plates at 5000 cells/well. The next day, cells were treated with varying concentrations of cisplatin, either with or without added inhibitor compound. After 48 hours of cisplatin+compound treatment, the cells were washed 3 times with PBS×1 and fresh media applied. After 4 days of recovery, the cells were stained with methylene blue and imaged using a Nikon SMZ25 stereomicroscope. The images were analyzed using the ImageJ (National Institutes of Health) area measurement tool to quantify total colony size in each well.

H1975 cells = assay: Colony survival assay, H1975 cells; settings: H1975, 5 μM cisplatin
Procedure: as §1
(§2) Cells were plated in 24-well plates at 50,000 cells/well (H1975 line) or 10,000 cells/well (A549 line). The next day, cells were treated with varying concentrations of cisplatin ([…]), with or without 50 μM compound. For the untreated control wells containing only cisplatin, DMSO was applied in place of the compound. After 48 hours of cisplatin+compound treatment, the cells were washed 3 times with PBS and fresh media was applied. After 4 days of recovery, the cells were stained with methylene blue and imaged using a Nikon SMZ25 stereomicroscope. The images were analyzed using the ImageJ (National Institutes of Health) area measurement tool to quantify total colony size in each well.
(§3) In order to assess the ability of the selected compounds to sensitize cells during cisplatin treatment, the inventors established a colony survival assay comparing the viability of cells treated with cisplatin alone or with combined treatment of cisplatin and 50 μM compound. For the compound screen, we used two lung cancer cell lines: human non-small lung carcinoma H1975 cells, and epithelial lung adenocarcinoma A549 cells. Out of ten compounds tested, compounds c #2 and c #3 were identified with the most significant sensitization effect and were chosen for future characterization. […] Survival rate was reduced from 90% in 5 μM cisplatin treatment to 50% survival in the combined treatment (FIGS. 11A-B). H1975 cells presented similar behavior following doxorubicin treatment (FIG. 11C). IC50 was calculated using linear regression, presenting a clear reduction of cisplatin's IC50 in all treatments.

A549 cells = assay: Colony survival assay, A549 cells; settings: A549, 5 μM cisplatin
Procedure: as §1, §2, §3

SMILES	cell survival with cisplatin plus inhibitor (U2OS cells)	survival rate, cisplatin alone (H1975 cells) [%]	survival rate, cisplatin alone (A549 cells) [%]
CCCC(=O)Nc1cccc(C(=O)Nc2nnc(COC)s2)c1 [Compound 9]	no activity		
N.N.[Cl][Pt][Cl] [cisplatin, cis-diamminedichloroplatinum(II), reference compound]		90	90
